According to ChEMBL document CHEMBL5505979, “Novel aminothiazoximone-corbelled ethoxycarbonylpyrimidones with antibiofilm activity to conquer Gram-negative bacteria through potential multitargeting effects” (Eur J Med Chem, 2024):
Values after ≈ are worked out from the molar mass of the structure shown. Active and inactive are the calls of the source. No cut-off for these calls is given here.

Tests used:
Acinetobacter baumannii [1] = test: Anti-bacterial activity against Acinetobacter baumannii assessed as inhibition of bacterial growth measured upto 9 hrs; format: functional, organism-based
Escherichia coli [2] = test: Antibiofilm activity against Escherichia coli ATCC 25922 assessed as inhibition rate of bio-film formation at 8 times of MIC concentration by Crystal violet assay relative to control; format: functional
Escherichia coli [3] = test: Anti-bacterial activity against Escherichia coli ATCC 25922 assessed as growth inhibition by measuring optical density measured at 1/4 time of MIC in presence of 1 times of MIC of norfloxacin by Checkerboard assay (reference value: 0.128); format: functional
Escherichia coli [4] = test: Anti-bacterial activity against Escherichia coli ATCC 25922 assessed as growth inhibition by measuring optical density measured at 1/4 time of MIC in presence of 1/2 times of MIC of norfloxacin by Checkerboard assay (reference value: 0.128); format: functional
Staphylococcus aureus [5] = test: Anti-bacterial activity against Staphylococcus aureus CMCC (B) 26003 assessed as inhibition of bacterial growth; format: functional
Acinetobacter baumannii [6] = test: Anti-bacterial activity against Acinetobacter baumannii assessed as growth inhibition by measuring optical density measured at 1 time of MIC in presence of 1 times of MIC of norfloxacin by Checkerboard assay (reference value: 0.157); format: functional
Acinetobacter baumannii [7] = test: Antibiofilm activity against Acinetobacter baumannii assessed as inhibition rate of bio-film formation at 8 times of MIC concentration in presence of sodium dodecyl sulfate by Crystal violet assay relative to control; format: functional, organism-based
Calf thymus DNA = test: Binding affinity to calf thymus DNA assessed as decrease in fluorescence intensity at 530 nm by Acridine Orange based fluorescence spectroscopy; format: nucleic-acid assay; conditions: Bos taurus
Acinetobacter baumannii [8] = test: Anti-bacterial activity against Acinetobacter baumannii assessed as growth inhibition by measuring optical density measured at 4 time of MIC in presence of 1/2 times of MIC of norfloxacin by Checkerboard assay (reference value: 0.152); format: functional
Acinetobacter baumannii [9] = test: Anti-bacterial activity against Acinetobacter baumannii assessed as growth inhibition by measuring optical density measured at 1/2 time of MIC in presence of 1/8 times of MIC of norfloxacin by Checkerboard assay (reference value: 0.152); format: functional
Escherichia coli [10] = test: Reduction in metabolic activity of Escherichia coli ATCC 25922 assessed as decrease in bacterial lactate dehydrogenase activity at 0.5 to 8 times of MIC concentration; format: functional, organism-based
Acinetobacter baumannii [11] = test: Anti-bacterial activity against Acinetobacter baumannii assessed as growth inhibition by measuring optical density measured at 4 time of MIC in presence of 1/8 times of MIC of norfloxacin by Checkerboard assay (reference value: 0.152); format: functional
Escherichia coli [12] = test: Anti-bacterial activity against Escherichia coli ATCC 25922 assessed as inhibition of bacterial growth measured after 20 passages at sub-MIC concentration by multiple resistance study; format: functional, organism-based
Acinetobacter baumannii [13] = test: Anti-bacterial activity against Acinetobacter baumannii R674 assessed as inhibition of bacterial growth; format: functional
Pseudomonas aeruginosa = test: Anti-bacterial activity against Pseudomonas aeruginosa CMCC (B) 10104 assessed as inhibition of bacterial growth; format: functional; conditions: Pseudomonas aeruginosa, CMCC (B) 10104; read-out: MIC
Acinetobacter baumannii [14] = test: Antibiofilm activity against Acinetobacter baumannii assessed as clearance rate of mature biofilm at 8 times of MIC concentration relative to control; format: functional
Escherichia coli [15] = test: Reduction of biofilm virulent factors in Escherichia coli ATCC 25922 assessed as decrease in extracellular polymeric substances (EPS) by measuring optical density at 490 nm at 1 times of MIC concentration by congo red binding assay (reference value: 0.028 to 0.031); format: functional
Acinetobacter baumannii [16] = test: Reduction in metabolic activity of Acinetobacter baumannii at 2 times of MIC concentration relative to control; format: functional; set-up: scale not given: the % may be the effect or the level left
Escherichia coli [17] = test: Reduction of biofilm virulent factors in Escherichia coli ATCC 25922 assessed as decrease in extracellular polymeric substances (EPS) by measuring optical density at 490 nm at 4 times of MIC concentration by congo red binding assay (reference value: 0.028 to 0.031); format: functional
Escherichia coli [18] = test: Anti-bacterial activity against Escherichia coli ATCC 25922 assessed as growth inhibition by measuring optical density measured at 1 time of MIC in presence of 1/2 times of MIC of norfloxacin by Checkerboard assay (reference value: 0.125); format: functional
Escherichia coli [19] = test: Anti-bacterial activity against Escherichia coli ATCC 25922 assessed as growth inhibition by measuring optical density measured at 1/2 time of MIC in presence of 1/2 times of MIC of norfloxacin by Checkerboard assay (reference value: 0.124); format: functional
Acinetobacter baumannii [20] = test: Anti-bacterial activity against Acinetobacter baumannii assessed as growth inhibition by measuring optical density measured at 1/4 time of MIC in presence of 1/8 times of MIC of norfloxacin by Checkerboard assay (reference value: 0.152); format: functional
Escherichia coli [21] = test: Induction of membrane depolarization Escherichia coli ATCC 25922 assessed as increase in red fluorescence intensity at 0.5 to 8 times of MIC concentration measured after 6 hrs by […] assay; format: functional, organism-based
Escherichia coli [22] = test: Reduction in metabolic activity of Escherichia coli ATCC 25922 at MIC concentration relative to control; format: functional; set-up: scale not given: the % may be the effect or the level left
Escherichia coli [23] = test: Induction of ROS accumulation in Escherichia coli ATCC 25922 assessed as decrease in GSH activity by measuring reduced GSH to convert to oxidized GSSG at 1/4 to 2 times of MIC by Ellmans metho; format: functional, organism-based
Candida tropicalis = test: Anti-fungal activity against Candida tropicalis assessed as inhibition of fungal growth; format: functional; conditions: Candida tropicalis; read-out: MIC
Acinetobacter baumannii [24] = test: Anti-bacterial activity against Acinetobacter baumannii assessed as growth inhibition by measuring optical density measured at 1/2 time of MIC in presence of 2 times of MIC of norfloxacin by Checkerboard assay (reference value: 0.152); format: functional
Escherichia coli [25] = test: Reduction of biofilm virulent factors in Escherichia coli ATCC 25922 assessed as decrease in hydrophobicity index; format: functional, organism-based
Acinetobacter baumannii [26] = test: Induction of intracellular ROS accumulation in Acinetobacter baumannii assessed as larger green fluorescence densities at 1/4 to 2 times of MIC by microscopic imaging assay; format: functional, organism-based
Staphylococcus aureus [27] = test: Anti-bacterial activity against Staphylococcus aureus ATCC 29213 assessed as inhibition of bacterial growth; format: functional; conditions: Staphylococcus aureus, ATCC 29213; read-out: MIC
[28] = Hemolysis in human RBC assessed as hemolysis rate at effective bactericidal concentration for 3 hrs; format: toxicity, cell-based, Erythrocyte; conditions: red blood cells, read-out: Activity
Cell membrane = test: Induction of physical destruction of cell membrane in Escherichia coli ATCC 25922 assessed as leakage of protein at 1/4 to 8 times of MIC concentration by Coomassie blue quantitative assay; format: cell membranes
Acinetobacter baumannii [29] = test: Reduction of biofilm virulent factors in Acinetobacter baumannii assessed as decrease in extracellular polymeric substances (EPS) by measuring optical density at 490 nm at 1/4 times of MIC concentration by congo red binding assay (reference value: 0.188 to 0.192); format: functional
Escherichia coli [30] = test: Antibiofilm activity against Escherichia coli ATCC 25922 assessed as inhibition rate of bio-film formation at 0.5 times of MIC concentration by Crystal violet assay relative to control; format: functional
Staphylococcus aureus [31] = test: Anti-bacterial activity against Staphylococcus aureus CMCC (B) 26001 assessed as inhibition of bacterial growth; format: functional

## CCCCc1nc(Cl)c(C2NC(=O)NC(CN3CCN(C(=O)/C(=N/OC)c4csc(N)n4)CC3)=C2C(=O)OCC)[nH]1 (stereo not given)
Acinetobacter baumannii [1]
  Activity: Dose-Dependent Effect
Escherichia coli [2]
  inhibition (INH): >70.2%
Escherichia coli [3]
  OD: 0.112
Escherichia coli [4]
  OD: 0.125
Staphylococcus aureus [5]
  MIC: 26 µM (≈ 15.8 µg/mL)
Acinetobacter baumannii [6]
  OD: 0.052
Acinetobacter baumannii [7]
  Activity: Active
Calf thymus DNA
  Activity: Active
Acinetobacter baumannii [8]
  OD: 0.05
Acinetobacter baumannii [9]
  OD: 0.117
Escherichia coli [10]
  Activity: Active
Acinetobacter baumannii [11]
  OD: 0.118
Escherichia coli [12]
  Activity: Active
Acinetobacter baumannii [13]
  MIC: 7 µM (≈ 4.26 µg/mL)
Pseudomonas aeruginosa
  MIC: 26 µM (≈ 15.8 µg/mL)
Acinetobacter baumannii [14]
  Activity: 42.6%
Escherichia coli [15]
  OD: 0.071
Acinetobacter baumannii [16]
  Activity: 66.3%
Escherichia coli [17]
  OD: 0.061
Escherichia coli [18]
  OD: 0.096
Escherichia coli [19]
  OD: 0.107
Acinetobacter baumannii [20]
  OD: 0.127
Escherichia coli [21]
  Activity: Active
Escherichia coli [22]
  Activity: 63.6%
Escherichia coli [23]
  Activity: Active
Candida tropicalis
  MIC: 53 µM (≈ 32.2 µg/mL)
Acinetobacter baumannii [24]
  OD: 0.051
Escherichia coli [25]
  Activity: Active
Acinetobacter baumannii [26]
  Activity: Active
Staphylococcus aureus [27]
  MIC: 26 µM (≈ 15.8 µg/mL)
[28]
  hemolysis at 3 h: < 5%
Cell membrane
  Activity: Active
Acinetobacter baumannii [29]
  OD: 0.178
Escherichia coli [30]
  inhibition (INH): 28.3%
Staphylococcus aureus [31]
  MIC: 26 µM (≈ 15.8 µg/mL)
